Test results as given in patent publication US8741897B2, “Glucocorticoid mimetics, methods of making them, pharmaceutical compositions and uses thereof” (Boehringer Ingelheim Pharmaceuticals Inc., priority 2003, dated 2014).

Legend:
[1] = target: T1, human glucocorticoid receptor (GR) complex (Homo sapiens, UniProt P04150); test: Glucocorticoid receptor competitive binding assay (fluorescence polarization, TAMRA-labeled dexamethasone probe); conditions: compounds of Formula (IA)
T1 construct: made in house; host or cells: insect expression system (baculovirus lysate)
T1 sequence (P04150 1-777): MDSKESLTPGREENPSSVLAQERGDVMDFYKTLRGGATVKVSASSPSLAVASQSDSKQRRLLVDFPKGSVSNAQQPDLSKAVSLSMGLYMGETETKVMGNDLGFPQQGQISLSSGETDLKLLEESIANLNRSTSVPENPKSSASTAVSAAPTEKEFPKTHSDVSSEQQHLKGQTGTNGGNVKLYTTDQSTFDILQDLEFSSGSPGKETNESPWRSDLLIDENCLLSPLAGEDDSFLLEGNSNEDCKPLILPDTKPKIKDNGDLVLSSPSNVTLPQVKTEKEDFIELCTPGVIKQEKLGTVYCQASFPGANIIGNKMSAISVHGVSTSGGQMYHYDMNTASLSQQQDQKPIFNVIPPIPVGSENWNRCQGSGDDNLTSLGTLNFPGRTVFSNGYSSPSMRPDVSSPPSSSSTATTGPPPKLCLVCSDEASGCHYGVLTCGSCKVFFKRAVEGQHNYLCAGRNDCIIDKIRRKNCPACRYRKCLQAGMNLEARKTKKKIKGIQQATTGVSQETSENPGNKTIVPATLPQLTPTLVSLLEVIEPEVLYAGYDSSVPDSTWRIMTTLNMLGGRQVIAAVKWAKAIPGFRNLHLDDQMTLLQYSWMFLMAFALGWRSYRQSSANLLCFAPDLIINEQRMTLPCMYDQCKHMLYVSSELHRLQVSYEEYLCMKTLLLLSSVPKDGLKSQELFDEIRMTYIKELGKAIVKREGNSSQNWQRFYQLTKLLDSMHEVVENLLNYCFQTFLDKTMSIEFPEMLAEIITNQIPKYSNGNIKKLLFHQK
Outline: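 Fluorescence-polarization competition against 15 nM TAMRA-dexamethasone (stock added to the mix) for human GR complex from baculovirus lysate diluted 1:170. Buffer: 10 mM TES, 50 mM KCl, 20 mM Na2MoO4, 1.5 mM EDTA, 0.04% CHAPS, 10% glycerol, 1 mM DTT, pH 7.4. IC50 from 4-parameter logistic fit.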

[2] = system: glucocorticoid receptor function; test: one or more of the above assays (GR binding and glucocorticoid receptor cell assays: aromatase, IL-6, TAT, MMTV-Luc, IL-8, ICAM-Luc); type: cell-based; conditions: assay not specified per compound
[3] = system: Human osteosarcoma MG-63 cells; test: Inhibition of osteocalcin production from osteoblast cell line MG-63; type: cell-based; conditions: Vitamin D 10 nM, 48 hours
Experimental: 7. Inhibition of Osteocalcin Production from Osteoblast Cell Line MG-63
The next day, wells are replaced with fresh media. Cells are treated with Vitamin D (Sigma, Cat. No. D1530) to a final concentration of 10 nM, and with the test compounds in concentrations of 10^−6 M to 10^−9 M, in a total volume of 200 μL per well. Samples are done in duplicates. […] Positive control wells receive Vitamin D only, without compounds, and represent maximum (100%) amount of osteocalcin production. Plates are incubated at 37° C. incubator for 48 hours and supernatants are harvested at the end of incubation. Amounts of osteocalcin in the supernatants are determined by the Glype osteocalcin ELISA kit (Zymed, Cat. No. 99-0054) according to manufacture's protocol. Inhibition of osteocalcin by test compounds is expressed in percentage relative to positive controls. IC50 values of the test compounds are derived by non-lineal curve fitting.

`Cc1ccc(F)cc1C(C)(C)CC(O)(Cc1cc2cnncc2[nH]1)C(F)(F)F` (stereo not drawn) [1,1,1-Trifluoro-4-(5-fluoro-2-methylphenyl)-4-methyl-2-(1H-pyrrolo[2,3-d]pyridazin-2-ylmethyl)pentan-2-ol] was tested. Which “activity in the GR binding assay” value [1] did it give?
Its value is “potent activity”.

And the “activity as agonists of the glucocorticoid receptor function in one or more of the above assays” value (shortened to “activity as agonists”) [2]?
Its value is “potent agonists”.

And the “inhibit the vitamin D stimulated production of osteocalcin” value [3]?
Its value is “inhibit”.

With `COc1ccc(F)cc1C(C)(C)CC(O)(Cc1cc2c(C)nc(C#N)cc2[nH]1)C(F)(F)F` (stereo not drawn) [2-[4-(5-Fluoro-2-methoxyphenyl)-2-hydroxy-4-methyl-2-trifluoromethylpentyl]-4-methyl-1H-pyrrolo[3,2-c]pyridine-6-carbonitrile] as the molecule, how does the “activity in the GR binding assay” value [1] read?
The value was “potent activity”.

And the “activity as agonists” value [2]?
Its value is “potent agonists”.

And the “inhibit the vitamin D stimulated production of osteocalcin” value [3]?
The value was “inhibit”.

What does the source list for `CC(C)(CC(O)(Cc1cc2cc(C(=O)N3CCCC3)ccc2[nH]1)C(F)(F)F)c1cc(Br)cc2c1OCC2` (stereo not drawn) [{2-[4-(5-Bromo-2,3-dihydrobenzofuran-7-yl)-2-hydroxy-4-methyl-2-trifluoromethylpentyl]-1H-indol-5-yl}pyrrolidin-1-ylmethanone]?
activity in the GR binding assay [1]: potent activity; activity as agonists of the glucocorticoid receptor function in one or more of the above assays [2]: potent agonists; inhibit the vitamin D stimulated production of osteocalcin [3]: inhibit

Which results are given for `Cc1cc(C#N)cc2[nH]c(CC(O)(CC(C)(C)c3cc(S(C)(=O)=O)cc4c3OCC4)C(F)(F)F)cc12` (stereo not drawn) [2-[2-Hydroxy-4-(5-methanesulfonyl-2,3-dihydrobenzofuran-7-yl)-4-methyl-2-trifluoromethylpentyl]-4-methyl-1H-indole-6-carbonitrile]?
activity in the GR binding assay [1]: potent activity; activity as agonists of the glucocorticoid receptor function in one or more of the above assays [2]: potent agonists; inhibit the vitamin D stimulated production of osteocalcin [3]: inhibit

`CC(C)(CC(O)(Cc1cc2cc(C(=O)NCC#N)ccc2[nH]1)C(F)(F)F)c1cc(Br)cc2c1OCC2` (stereo not drawn) [2-[4-(5-Bromo-2,3-dihydrobenzofuran-7-yl)-2-hydroxy-4-methyl-2-trifluoromethylpentyl]-1H-indole-5-carboxylic acid cyanomethylamide] was tested. Which “activity in the GR binding assay” value [1] did it give?
The value was “potent activity”.

What about the “activity as agonists” value [2] of the same molecule?
The value was “potent agonists”.

And the “inhibit the vitamin D stimulated production of osteocalcin” value [3]?
Its value is “inhibit”.

Which results are given for `Cc1cc2[nH]c(CC(O)(CC(C)(C)c3cc(Cl)cc4c3OCC4)C(F)(F)F)cc2c(C)n1` (stereo not drawn) [4-(5-Chloro-2,3-dihydrobenzofuran-7-yl)-2-(4,6-dimethyl-1H-pyrrolo[3,2-c]pyridin-2-ylmethyl)-1,1,1-trifluoro-4-methylpentan-2-ol]?
activity in the GR binding assay [1]: potent activity; activity as agonists of the glucocorticoid receptor function in one or more of the above assays [2]: potent agonists; inhibit the vitamin D stimulated production of osteocalcin [3]: inhibit

How did the “activity in the GR binding assay” value [1] turn out when `COc1cc2cc(CC(O)(CC(C)(C)c3cc(Cl)cc4c3OCC4)C(F)(F)F)[nH]c2cn1` (stereo not drawn) [4-(5-Chloro-2,3-dihydrobenzofuran-7-yl)-1,1,1-trifluoro-2-(5-methoxy-1H-pyrrolo[2,3-c]pyridin-2-ylmethyl)-4-methylpentan-2-ol] was run?
The value was “potent activity”.

And the “activity as agonists” value [2]?
The value was “potent agonists”.

What about the “inhibit the vitamin D stimulated production of osteocalcin” value [3] of the same molecule?
The value was “inhibit”.
